Source: PubChem BioAssay AID1963977 (Molecular Pharmacology Branch, DTP, NCI, 2024)

Test system: 624824-186-R-J3-PDC multicell spheroids, viability
Test: Anticancer human tumor 624824-186-R-J3-PDC patient-derived colon adenocarcinoma cell line growth inhibition [PI3K]
Conditions: for viability, T/C: stronger effect = lower value; active = viability on the fitted dose curve at most 10% of control; inactive = the rest
Procedure, shortened: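 High-throughput combination screen: PI3K inhibitors crossed with targeted small molecules on complex spheroids of tumor cells, HUVEC and MSCs at 37 degrees C, 5% CO2. Top concentration was at or near clinical Cmax (otherwise 10 microM), with half-log decrements.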

[1] = curve of first compound, second compound 0.0316 µM
[2] = curve of first compound, second compound 0.1 µM
[3] = curve of first compound, second compound 0.316 µM
[4] = curve of first compound, second compound 1 µM
[5] = second compound 0.0316 µM, first compound 0.0316 µM
[6] = second compound 0.0316 µM, first compound 0.1 µM
[7] = second compound 0.0316 µM, first compound 0.316 µM
[8] = second compound 0.0316 µM, first compound 1 µM
[9] = second compound 0.0316 µM, first compound 3.16 µM
[10] = second compound 0.0316 µM, first compound 10 µM
[11] = second compound 0.1 µM, first compound 0.0316 µM
[12] = second compound 0.1 µM, first compound 0.1 µM
[13] = second compound 0.1 µM, first compound 0.316 µM
[14] = second compound 0.1 µM, first compound 1 µM
[15] = second compound 0.1 µM, first compound 3.16 µM
[16] = second compound 0.1 µM, first compound 10 µM
[17] = second compound 0.316 µM, first compound 0.0316 µM
[18] = second compound 0.316 µM, first compound 0.1 µM
[19] = second compound 0.316 µM, first compound 0.316 µM
[20] = second compound 0.316 µM, first compound 1 µM
[21] = second compound 0.316 µM, first compound 3.16 µM
[22] = second compound 0.316 µM, first compound 10 µM
[23] = second compound 1 µM, first compound 0.0316 µM
[24] = second compound 1 µM, first compound 0.1 µM
[25] = second compound 1 µM, first compound 0.316 µM
[26] = second compound 1 µM, first compound 1 µM
[27] = second compound 1 µM, first compound 3.16 µM
[28] = second compound 1 µM, first compound 10 µM
[29] = curve of first compound, second compound 0.00316 µM
[30] = curve of first compound, second compound 0.01 µM
[31] = second compound 0.00316 µM, first compound 0.0316 µM
[32] = second compound 0.00316 µM, first compound 0.1 µM
[33] = second compound 0.00316 µM, first compound 0.316 µM
[34] = second compound 0.00316 µM, first compound 1 µM
[35] = second compound 0.00316 µM, first compound 3.16 µM
[36] = second compound 0.00316 µM, first compound 10 µM
[37] = second compound 0.01 µM, first compound 0.0316 µM
[38] = second compound 0.01 µM, first compound 0.1 µM
[39] = second compound 0.01 µM, first compound 0.316 µM
[40] = second compound 0.01 µM, first compound 1 µM
[41] = second compound 0.01 µM, first compound 3.16 µM
[42] = second compound 0.01 µM, first compound 10 µM
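Also: spheroids exposed to agents for seven days before luminescence read.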
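For viability, T/C in this document: luminescent signal used as a stand-in for spheroid viability; percent viability relative to DMSO vehicle control wells taken as 100%.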

C[C@@H](NC(=O)c1ncnc(N)c1Cl)c1ncc(C(=O)Nc2cc(C(F)(F)F)c(Cl)cn2)s1 + Cc1nc(NC(=O)N2CCCC2C(N)=O)sc1-c1ccnc(C(C)(C)C(F)(F)F)c1
4.57 µM: IC50 (curve of first compound, second compound 3.16 µM)
> 10 µM: IC50 [1] | IC50 [2] | IC50 [3] | IC50 [4]
inactive: viability, T/C [5] 108% | viability, T/C [6] 99.1% | viability, T/C [7] 102% | viability, T/C [8] 97% | viability, T/C [9] 98.8% | viability, T/C [10] 103% | viability, T/C [11] 111% | viability, T/C [12] 106% | viability, T/C [13] 98.6% | viability, T/C [14] 103% | viability, T/C [15] 109% | viability, T/C [16] 91% | viability, T/C [17] 101% | viability, T/C [18] 114% | viability, T/C [19] 99% | viability, T/C [20] 98.6% | viability, T/C [21] 106% | viability, T/C [22] 72.6% | viability, T/C [23] 104% | viability, T/C [24] 110% | viability, T/C [25] 99.1% | viability, T/C [26] 97.8% | viability, T/C [27] 86.5% | viability, T/C [28] 52.4% | viability, T/C (second compound 3.16 µM, first compound 0.0316 µM) 91.5% | viability, T/C (second compound 3.16 µM, first compound 0.1 µM) 85.5% | viability, T/C (second compound 3.16 µM, first compound 0.316 µM) 82.7% | viability, T/C (second compound 3.16 µM, first compound 1 µM) 75.8% | viability, T/C (second compound 3.16 µM, first compound 3.16 µM) 59.1% | viability, T/C (second compound 3.16 µM, first compound 10 µM) 30.7% | viability, T/C (second compound 10 µM, first compound 0.0316 µM) 74.1% | viability, T/C (second compound 10 µM, first compound 0.1 µM) 76.4% | viability, T/C (second compound 10 µM, first compound 0.316 µM) 56% | viability, T/C (second compound 10 µM, first compound 1 µM) 46.2% | viability, T/C (second compound 10 µM, first compound 3.16 µM) 29.6% | viability, T/C (second compound 10 µM, first compound 10 µM) 21.5%
0.66 µM: IC50 (curve of first compound, second compound 10 µM)

CC1(C)CCC(Nc2ncc(C(F)(F)F)c(-c3c[nH]c4c(P(C)(C)=O)c(C#N)ccc34)n2)CN1 (stereo not drawn) + COc1c(OCCCN2CCOCC2)ccc2c3n(c(=NC(=O)c4cnc(N)nc4)nc12)CCN3
active: viability, T/C [36] 3.27% | viability, T/C [42] 3.28% | viability, T/C [10] 2.59% | viability, T/C [16] 1.87% | viability, T/C [22] 1.42% | viability, T/C [28] 1.68%
5.06 µM: IC50 [30]
< 0.0316 µM: IC50 [2] | IC50 [3] | IC50 [4]
inactive: viability, T/C [31] 103% | viability, T/C [32] 84.7% | viability, T/C [33] 87.1% | viability, T/C [34] 85% | viability, T/C [35] 95.1% | viability, T/C [37] 90.8% | viability, T/C [38] 72.4% | viability, T/C [39] 76.6% | viability, T/C [40] 81.7% | viability, T/C [41] 89.5% | viability, T/C [5] 59.7% | viability, T/C [6] 55.2% | viability, T/C [7] 54.9% | viability, T/C [8] 60.6% | viability, T/C [9] 55.9% | viability, T/C [11] 41.8% | viability, T/C [12] 36.6% | viability, T/C [13] 40.8% | viability, T/C [14] 38.2% | viability, T/C [15] 37.9% | viability, T/C [17] 28.5% | viability, T/C [18] 30.3% | viability, T/C [19] 28.9% | viability, T/C [20] 24.8% | viability, T/C [21] 24.7% | viability, T/C [23] 19.4% | viability, T/C [24] 18.4% | viability, T/C [25] 19% | viability, T/C [26] 18.1% | viability, T/C [27] 18%
5.42 µM: IC50 [29]
3.6 µM: IC50 [1]

CC(Nc1ccc2c(c1)OCCn1cc(N3C(=O)OCC3C(F)F)nc1-2)C(N)=O (stereo not drawn)
inactive: viability, T/C (compound 0.00316 µM) 101% [middle of 7 runs] | viability, T/C (compound 0.01 µM) 103% [middle of 7 runs] | viability, T/C (compound 0.0316 µM) 108% [middle of 7 runs] | viability, T/C (compound 0.1 µM) 109% [middle of 7 runs] | viability, T/C (compound 0.316 µM) 100% [middle of 7 runs] | viability, T/C (compound 1 µM) 88.5% [middle of 7 runs]
> 1 µM: IC50 (compound alone, run of 04/24/2023)

C#Cc1c(F)ccc2cc(O)cc(-c3ncc4c(N5CC6CCC(C5)N6)nc(OCC56CCCN5CC(F)C6)nc4c3F)c12 (stereo not drawn) + CC(Nc1ccc2c(c1)OCCn1cc(N3C(=O)OCC3C(F)F)nc1-2)C(N)=O
inactive: viability, T/C [31] 106% | viability, T/C [32] 108% | viability, T/C [33] 100% | viability, T/C [34] 108% | viability, T/C [35] 104% | viability, T/C [36] 122% | viability, T/C [37] 109% | viability, T/C [38] 89.9% | viability, T/C [39] 97.1% | viability, T/C [40] 108% | viability, T/C [41] 103% | viability, T/C [42] 101% | viability, T/C [5] 109% | viability, T/C [6] 105% | viability, T/C [7] 107% | viability, T/C [8] 103% | viability, T/C [9] 107% | viability, T/C [10] 106% | viability, T/C [11] 105% | viability, T/C [12] 101% | viability, T/C [13] 108% | viability, T/C [14] 109% | viability, T/C [15] 111% | viability, T/C [16] 103% | viability, T/C [17] 95.9% | viability, T/C [18] 99.7% | viability, T/C [19] 103% | viability, T/C [20] 98% | viability, T/C [21] 104% | viability, T/C [22] 108% | viability, T/C [23] 93.9% | viability, T/C [24] 83.2% | viability, T/C [25] 94.3% | viability, T/C [26] 88.3% | viability, T/C [27] 88.8% | viability, T/C [28] 99.2%
> 10 µM: IC50 [29] | IC50 [30] | IC50 [1] | IC50 [2] | IC50 [3] | IC50 [4]
